Like-named read-outs stand apart in the source and are kept apart here.
What was measured:
dominant rats [1] = test: Reduction of Dominant Behavior Model (RDBM) of mania, dominant-submissive rat food competition test; type: in vivo, Sprague-Dawley rats
Description: (§1) In this study, the effects of COMPOUND #7 on dominant or submissive behavior in pairs of rats competing for food are examined. It has been shown that anti-manic drugs, including anticonvulsants, decrease dominance and antidepressant drugs reduce submissiveness. This model uses dominant behavior as a model of mania and submissive behavior as a model of depression. The dominance and submissiveness is defined in a competition test and measured as the relative success of two food-restricted rats to gain access to a feeder. Rats are randomly paired and placed in an apparatus allowing them to compete for a food reward. The dominant-submissive relationship develops over a 2-week period. The submissive or dominant animals in pairs selected after 2 weeks of training were treated orally […] (b.i.d.) with COMPOUND #7 at 3 or 30 mg/kg for 5 weeks. The partner of the drug-treated animal was treated with vehicle.
(§2) The objective of this study was to determine if COMPOUND #7 active in the Reduction of Submissive Behavior Model (RSBM) of depression and the Reduction of Dominant Behavior Model (RDBM) of mania. Measurements were made at two doses (3 and 30 mg/kg) after oral twice a day (b.i.d.) administration. The effect of the drug in the RSBM was compared to the effect of fluoxetine (10 mg/kg) and vehicle (0.5% methylcellulose). The effect of the drug in the RDBM was compared with the effect of lithium (100 mg/kg) and vehicle (0.5% methylcellulose). The endpoints measured were the development of a significant reduction of submissive or dominant behavior and its time of onset.
(§3) The DSR developed by two rats competing for food uses the apparatus in FIG. 1. The methodology and equipment are described in several publications; (See: Malatynska E, Goldenberg R, Shuck L, Haque A, Zamecki P, Crites G, Schindler N, Knapp R J. Reduction of submissive behavior in rats: a test for antidepressant drug activity. Pharmacology 2002; 64:8; Malatynska E, Rapp R, Crites G. Dominant behavior measured in a competition test as a model of mania. In: International Behavioral Neuroscience Society Meeting, ed. IBNSCapri, Italy, 2002, p 26; Carpenter L L, Leon Z, Yasmin S, Price L H. Do obese depressed patients respond to topiramate? A retrospective chart review. J Affect Disord 2002; 69:251; McElroy S L, Zarate C A, Cookson J, Suppes T, Huffman R F, Greene P, Ascher J. A 52-week, open-label continuation study of lamotrigine in the treatment of bipolar depression. J Clin Psychiatry 2004; 65:204; Bonnet U. Moclobemide: therapeutic use and clinical studies. CNS Drug Rev 2003; 9:97; Danysz W, Plaznik A, Kostowski W, Malatynska E, Jarbe T U, Hiltunen A J, Archer T. Comparison of desipramine, amitriptyline, zimeldine and alaproclate in six animal models used to investigate antidepressant drugs. […]

Male CF-1 mice = test: Forced swimming test in mice (behavioral despair); type: in vivo; details: 1 h before test; for reduction in immobility: 4-minute test period
Description: Porsolt (1977) proposed a model for screening antidepressants in mice, called the “behavioral despair” test. (See, Porsolt, R D et al. Behavioral despair in mice: A preliminary screening test for antidepressants. Arch Int Pharmacodyn Ther 229; 327-336:1977 and Porsolt, R D et al. Behavioral despair in rats: a new model sensitive to antidepressant treatments, Eur. J. Pharmacol., 47, 379-391, 1978). This test is also called the forced swim test In this test, a mouse is placed in a container of water and swims, apparently trying to escape. The animal then alternates periods of swimming and floating, i.e., remaining immobile. Antidepressants are among those drugs that reduce the periods of immobility. In the present report COMPOUND #7 was tested in the forced swimming procedure in mice to determine whether the compound had any potential antidepressant activity.
Male CF-1 mice (18-22 g) were purchased from Charles River Breeding Laboratories, Kingston, N.Y. Animals were housed in standing wire cages with free access to food and water. Experiments were initiated only after an acclimation period of at least 3 days to the animal room environment which consisted of automatically controlled illumination with a 12-hour light/dark cycle and controlled temperature and relative humidity.
COMPOUND #7 was dissolved in 30% polyethylene glycol 400 in deionized water and administered to animals by oral gavage in a volume of 0.1 ml/10 g body weight.
The method was similar to that described by Porsolt et al. (1977)1 with minor modifications (See, Porsolt R D, Bertin A, Jalfre M. Behavioral despair in mice: A preliminary screening test for antidepressants. Arch Int Pharmacodyn Ther 229; 327-336:1977)
Mice were pre-swum the day before the test for 5 minutes. On the test day, mice were dosed orally with either test compound or vehicle. One hour later each animal was placed in a glass cylinder (1000-ml beaker; height 14 cm, diameter 11.5 cm) containing water up to a height of 9 cm (water temperature at 25° C.). Following a 2-minute pretest, immobility of each mouse was recorded for a 4-minute test period. Immobility was defined as the animal making only those movements to stay afloat, especially combined with lack of movement of its hind legs. Each group consisted of 8 mice.

Male NMRI mice = test: Mouse tail suspension test (TST); type: in vivo
Procedure: The tail suspension test (TST) is an acute test which is predictive of anti-depressant activity of a test compound. (See, Steru, L. et al. Psychopharmacology, 85, 367-370, 1985)
Male NMRI mice (22-26 g; n=12 mice per dose) is given a single dose of vehicle (aqueous solution of 1 equivalent tartaric acid+0.45% NaCl+10% cyclodextrin, i.p.), imipramine (128 mg/kg, p.o. in an aqueous solution of 0.9% NaCl) or COMPOUND #7 (at 1, 3 AND 30 mg/kg, p.o.) 60 min prior to tail suspension. All substances were administered in a volume of […]. In this test, the mice are submitted to an unpleasant and inescapable situation (i.e. hanging by the tail) for 6 min. Once suspended, motor activity diminishes rapidly and the mice become immobile. A compound is considered active as an antidepressant in this model, when there is a reduction in immobility time. Viewpoint video-tracking software is utilized to record immobility time.

submissive rats [2] = test: Reduction of Submissive Behavior Model (RSBM) of depression, dominant-submissive rat food competition test; type: in vivo, Sprague-Dawley rats
Description: as §1, §2
as §3, with “drugs. Pharmacol Toxicol 1988; 62:42; Knapp R J, Goldenberg R, Shuck C, Cecil A, Watkins J, Miller C, Crites G, Malatynska E. Antidepressant activity of memory-enhancing drugs in the reduction of submissive behavior model. Eur J Pharmacol 2002; 440:27; Kostowski W, Malatynska E, Plaznik A, Dyr W, Danysz W. Comparative studies on antidepressant action of alprazolam in different animal models. Pol J Pharmacol Pharm 1986; 38, 471 and Malatynska E, De Leon I, Allen D, Yamamura H I. Effects of amitriptyline on GABA-stimulated ^36Cl^− uptake in relation to a behavioral model of depression. Brain Res Bull 1995; 37:53) In the experiments described in this report Sprague-Dawley rats weighing 160 to 180 g were used.” for “drugs.”

[3] = test system: Male rats of Wistar (Han) strain; test: Behavioral despair or forced swim test in the rat; type: in vivo; details: 4 hours and 60 minutes before the test, 5 minute test
Description: The behavioral despair or forced swim test (FST) in rats as in mice (see Example 2) is an acute test of anti-depressant activity. Antidepressant-like compounds are known to be active in this assay (e.g., tricyclics, MAO inhibitors, SSRIs), although activity can vary with mouse strain differences, as would be known to one of skill in the art. (See, Porsolt, R D et al. Behavioral despair in rats: a new model sensitive to antidepressant treatments, Eur. J. Pharmacol., 47, 379-391, 1978) and also (see; Porsolt, R D et al. Behavioral despair in mice: A preliminary screening test for antidepressants. Arch Int Pharmacodyn Ther 229; 327-336:1977)
The assay procedure is as follows. Male rats of Wistar (Han) strain, 185-245 g body weight supplied by Elevage Janvier, 53940 Le Genest-Saint-Isle, France were used. These animals were administered 1, 3 and 30 mg/kg of COMPOUND #7 p.o. 24 hours, 4 hours and 60 minutes before the test. Active control animals were given imipramine 64 mg/kg under the same conditions. […] Imipramine at 64 mg/kg administered under the same experimental conditions decreased the duration of immobility by 44% as compared to vehicle.

dominant rats [4] = details: administered to dominant rats, literature; cited from earlier work
submissive rats [5] = details: literature, cited from earlier work
[6] = treatment of the submissive subject for 3 weeks

Structure (SMILES): NC(=O)OC[C@@H](O)c1ccccc1Cl [COMPOUND #7]
- onset of significant decrease of dominant rat performance (treatment time) (dominant rats [1]; 3 mg/kg b.i.d. p.o.): 3 weeks
- effect on performance of dominant rats (time spent on feeder) (dominant rats [1]; 3 mg/kg b.i.d. p.o. for 5 weeks, dominant rat treated, partner vehicle): decreased the performance of dominant rats
- onset of increased competitiveness of dominant rats (treatment time) (dominant rats [1]; 30 mg/kg b.i.d. p.o.): 2 weeks
- effect on competitiveness of dominant rats (dominant rats [1]; 30 mg/kg b.i.d. p.o. for 5 weeks, vs vehicle treated dominant rats): significantly increased the competitiveness
- reduction in immobility (Male CF-1 mice; 1 mg/kg oral): 25%
- reduction in immobility (Male CF-1 mice; 3 mg/kg oral): 28%
- reduction in immobility (Male CF-1 mice; 10 mg/kg oral): 43%
- reduction in immobility (significance) (Male CF-1 mice; 17.3 mg/kg oral): not significant
- reduction in immobility (significance) (Male CF-1 mice; 30 mg/kg oral): not significant
- effect on duration of immobility (Male NMRI mice; 1, 3 and 30 mg/kg p.o. 60 minutes before the test): did not affect the duration of immobility
- effect on submissive rat behavior (time spent on feeder) (submissive rats [2]; 3 mg/kg b.i.d. p.o. for 5 weeks, submissive rat treated, partner vehicle): did not have any effect
- onset of increased competitiveness of submissive rats (treatment time) (submissive rats [2]; 30 mg/kg b.i.d. p.o.): 1 week
- effect on competitiveness of submissive rat (time spent on feeder, dominance level) (submissive rats [2]; 30 mg/kg b.i.d. p.o. for 5 weeks, vs vehicle-treated submissive rats): significantly increased competitiveness
- effect on duration of immobility ([3]; 1, 3 and 30 mg/kg p.o. 24 hours): did not affect the duration of immobility

Structure (SMILES): CC(N)Cc1ccccc1 (stereo not shown) [amphetamine, reference compound]
- effect on submissive behavior (submissive rats [2]; treatment of submissive rats, psychostimulant, unpublished observation): ineffective

Structure (SMILES): NC(=O)N1c2ccccc2C=Cc2ccccc21 [carbamazepine]
- effect on competitive behavior of dominant rats (dominant rats [4]): significantly reduced competitive behavior

Structure (SMILES): Clc1cccc(Cl)c1N=C1NCCN1 [clonidine]
- effect on competitive behavior of dominant rats (dominant rats [4]): significantly reduced competitive behavior

Structure (SMILES): CNCCCN1c2ccccc2CCc2ccccc21 [desipramine]
- effect on submissive behavior (submissive rats [5]; [6]): reduced submissive behavior

Structure (SMILES): CN1C(=O)CN=C(c2ccccc2)c2cc(Cl)ccc21 [diazepam]
- effect on submissive behavior (submissive rats [5]; treatment of submissive rats, anxiolytic): ineffective

Structure (SMILES): CNCCC(Oc1ccc(C(F)(F)F)cc1)c1ccccc1 (stereo not shown) [fluoxetine, reference compound]
- effect on submissive behavior (submissive rats [5]; [6]): reduced submissive behavior
- onset of significant effect in submissive rats (treatment time) (submissive rats [2]; 10 mg/kg i.p. once a day, previous experimental set): 3 weeks

Structure (SMILES): CN(C)CCCN1c2ccccc2CCc2ccccc21 [imipramine, reference compound]
- effect on submissive behavior (submissive rats [5]; [6]): reduced submissive behavior
- decrease of duration of immobility as compared with control (Male NMRI mice; 128 mg/kg p.o. 60 minutes before the test): −69%
- decrease of duration of immobility as compared to vehicle ([3]; 64 mg/kg p.o. 24 hours): 44%

Structure (SMILES): CCCC(CCC)C(=O)[O-].[Na+] [sodium valproate]
- effect on competitive behavior of dominant rats (dominant rats [4]): significantly reduced competitive behavior
